Among the data in paper PMC4764943, “Inhibitory effect of traditional oriental medicine-derived monoamine oxidase B inhibitor on radioresistance of non-small cell lung cancer” (Scientific Reports, 2016) are Kd values, retold here.

Assay [1] addresses T1, MAOB (monoamine oxidase B) (Homo sapiens, UniProt P27338).
T1 construct: recombinant human MAOB
T1 sequence (P27338 2-520): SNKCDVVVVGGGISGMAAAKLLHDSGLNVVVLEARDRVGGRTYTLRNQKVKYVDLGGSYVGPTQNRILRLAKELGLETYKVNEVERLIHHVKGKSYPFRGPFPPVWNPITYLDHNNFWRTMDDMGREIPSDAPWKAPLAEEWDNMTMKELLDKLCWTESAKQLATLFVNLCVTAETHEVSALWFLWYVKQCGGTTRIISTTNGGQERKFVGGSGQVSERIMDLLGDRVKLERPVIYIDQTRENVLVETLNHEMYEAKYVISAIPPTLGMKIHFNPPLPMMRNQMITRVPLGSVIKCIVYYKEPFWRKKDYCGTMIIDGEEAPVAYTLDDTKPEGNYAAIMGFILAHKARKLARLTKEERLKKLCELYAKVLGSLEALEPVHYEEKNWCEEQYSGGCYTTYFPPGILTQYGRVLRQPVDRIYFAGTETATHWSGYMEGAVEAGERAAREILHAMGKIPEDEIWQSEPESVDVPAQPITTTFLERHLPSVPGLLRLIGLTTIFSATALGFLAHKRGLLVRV
Briefly: ITC ([…] stoichiometry); also MAOB activity inhibition in vitro, IC50 […]. Type of assay: binding.

Assay [2] deals with T1, MAOB (monoamine oxidase B). The experiment in a line: ITC. In kind it is binding.

For the molecule `O=C(O)[C@H](O)Cc1ccc(O)c(O)c1` [danshensu, 3-(3,4-dihydroxyphenyl)-2-hydroxy-propanoic acid], the dissociation constant (Kd) (usually the constant that tells how readily two partners part at equilibrium) in assay [1] came out at 16 ± 0.8 µM.
Regarding `CNCC(O)c1ccc(O)cc1` (stereo not drawn) [synephrine], in assay [2] (read-out: Kd), the Kd amounted to 183 ± 10.3 µM.
On to `COc1cc(C=O)ccc1O` [vanillin], for which, in assay [2], the Kd is 165 ± 9.1 µM.
